Laboratory results from patent publication US9221914B2, “Agents targeting CD138 and uses thereof” (BIOTEST AG, priority 2007, dated 2015).

Experiments:
[1] = test system: MOLP-8 human multiple myeloma xenografts; assay: MOLP-8 human multiple myeloma xenograft in CB.17 SCID mice (Xenograft Mouse Experiments A, Part I); type: in vivo
Method: In these mice, subcutaneous tumors were established (female CB.17 SCID mice) by inoculation with MOLP-8 cell suspensions. Treatment with a single bolus intravenous injection was conducted when tumor volumes reached an average 113 mm^3. Changes in tumor volume and body weight were monitored twice per week.
Female CB.17 SCID mice, five weeks old, were obtained from Charles River Laboratories.
MOLP-8, a human multiple myeloma cell line, was supplied from ATCC.
Each mouse was inoculated with 1×10^7 MOLP-8 cells subcutaneously into the area under the right shoulder. The total volume was 0.2 ml per mouse, in which the ratio of serum-free medium to matrigel (BD Bioscience, Bedford, Mass.) was 1/1 (v/v). Prior to treatment, the xenograft tumors were monitored daily and were allowed to become established.
Eleven days after tumor cell inoculation, 42 mice were selected based on tumor volumes and body weights. […] The forty-two mice were randomly divided into seven groups (A-G) of six animals each based on tumor volume.
Each of six mice in Group A received 200 μl of PBS as vehicle control.
All agents were intravenously administered as a single bolus injection through a lateral tail vein with a 1 ml syringe fitted with a 27 gauge, ½ inch needle.
(§1) Tumor size was measured twice per week in three dimensions using the LabCat System (Tumor Measurement and Tracking, Innovative Programming Associated, Inc., Princeton, N.J.). The tumor volume in mm^3 was calculated using the methodology described in Tomayko et al., Cancer Chemother.

[2] = test system: MOLP-8 tumor xenografts; assay: Bulky MOLP-8 tumor xenograft model in SCID mice (Part II / Xenograft Mouse Experiments B); type: in vivo; conditions: 450 μg/kg dose; mean time to reach 160 mm^3 minus mean time of control group
Method: In a second set of experiments, MOLP-8 cells (1.5×10^7 cells per mouse), suspended in a 50:50 mixture of serum free media and matrigel were injected subcutaneously in the area under the right shoulder in 100 μl. […] Each mouse in the control group (n=6) received 0.2 ml of sterile PBS administered into the lateral tail vein (i.v.) in a bolus injection. All treatment doses were based on conjugated maytansinoid. […] Mice were randomized into eleven groups (n=6) by tumor volume using the LabCat Program. […] The mice were dosed based on the individual body weight.
as §1
In this set of experiments, eighty-five mice were inoculated with MOLP-8 cells (1.5×10^7 cells/mouse) subcutaneously in the right shoulder.

Row | Substance | homogeneity of anti-tumor activity in individual mice ([1]; 250 μg/kg single i.v. dose) | median tumor volume over time post-inoculation ([1]; 250 μg/kg single i.v. dose, data not shown) | effect on tumor growth compared with PBS-treated animals ([1]; single i.v. bolus, 250 μg/kg (nBT062 antibody […])) | TGD (days), tumor growth delay [2] [days]
1 | B-B4-SPP-DM1 [reference compound] | more heterogeneously and therefore less predicable | relatively better results for B-B4-SPP-DM1 than for nBT062-SPP-DM1 | marked delay in tumor growth | 
2 | nBT062-DM1: nBT062 conjugate with DM1, linker not stated at this place; TGD matches nBT062-SMCC-DM1 |  |  |  | 18
